Where two headings read alike, the source gives them in different places.
What was measured:
[1] = system: tested cancer cell lines (HepG2, Hep2, HCT116, RD, MCF7); test: In vitro cytotoxicity, summary statements over tested cancer cell lines; format: cell-based, human
[2] = system: bovine brain tubulin; test: Tubulin polymerization assay; format: biochemical; settings: 10 μM
[3] = target: T1, recombinant HDAC8 (Homo sapiens, UniProt Q9BY41); test: Histone deacetylase 8 inhibitory assay; format: biochemical; settings: 10 μM
T1 sequence (Q9BY41 1-377): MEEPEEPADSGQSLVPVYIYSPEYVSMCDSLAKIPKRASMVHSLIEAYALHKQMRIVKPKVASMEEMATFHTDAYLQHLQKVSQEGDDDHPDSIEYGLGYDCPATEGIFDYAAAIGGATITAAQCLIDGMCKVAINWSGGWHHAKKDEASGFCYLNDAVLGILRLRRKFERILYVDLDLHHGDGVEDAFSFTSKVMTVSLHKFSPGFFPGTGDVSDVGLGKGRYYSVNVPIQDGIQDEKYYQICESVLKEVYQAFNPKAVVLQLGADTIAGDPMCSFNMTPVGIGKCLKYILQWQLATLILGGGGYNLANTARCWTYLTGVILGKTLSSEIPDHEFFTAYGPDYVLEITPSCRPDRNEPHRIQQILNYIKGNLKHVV

[4] = Homo sapiens, RD, read-out: IC50 against cancer cell lines

| Percentage inhibition HDAC8 activity [3] | Compound | IC50 [1, 4] [µM] | further results |
| --- | --- | --- | --- |
| – | O=c1c(O)c(-c2ccc(O)c(O)c2)oc2cc(O)cc(O)c12 [Quercetin, quercetin] | < 20 | – |
| – | O=C(/C=C/c1ccc(O)c(O)c1)O[C@@H]1C[C@](O)(C(=O)O)C[C@@H](O)[C@H]1O [Chlorogenic acid, chlorogenic acid] | – | Percentage inhibition tubulin polymerization [2]: moderate inhibition |
| – | O=c1ccc2ccc3occc3c2o1 [Angelicin, angelicin] | < 20 | SI against cancer cell lines ([1]; tested cancer cell lines (extract and quercetin: except RD cells)): > 7 |
| stimulated HDAC8 activity | CC[C@H](CC[C@@H](C)[C@H]1CC[C@H]2[C@@H]3CC=C4C[C@@H](O[C@@H]5O[C@H](CO)[C@@H](O)[C@H](O)[C@H]5O)CC[C@]4(C)[C@H]3CC[C@]12C)C(C)C [β-Sitosterol-3-O-glucoside, β-sitosterol-3-O-glucoside] | – | – |
| – | CC(=O)OC1c2c(ccc3ccc(=O)oc23)OC(C)(C)C1OC(=O)C(C)(O)C(C)O (stereo not shown) [Hyuganin E, hyuganin E] | – | SI (good selectivity), Hep2, HCT116, and MCF7 ([1]; Hep2, HCT116, and MCF7): > 3; IC50 ([1]; read-out: IC50 values against Hep2, HCT116, and MCF7, Hep2, HCT116, and MCF7): < 25 µM |
| < 30% | O=Cc1ccc(CO)o1 [5-(hydroxymethyl)-2-furaldehyde] | – | – |
| – | O=c1cc(-c2ccc(O)c(O)c2)oc2cc(O)cc(O)c12 [Luteolin, luteolin] | < 20 | – |
| stimulated HDAC8 activity | Nc1ncnc2c1ncn2[C@@H]1O[C@H](CO)[C@@H](O)[C@H]1O [Adenosine, adenosine] | – | – |

Source: article PMC4787089 (Pharmacognosy Magazine, 2015)
